{"source": "patent US11389473B2", "about": "“Magnesium-containing oxytocin formulations and methods of use” (Tonix Pharmaceuticals Holding Corp., priority 2015, dated 2022)", "key": {"[1]": {"test_system": "rat model of facial thermal nociception", "assay": "Rat model of facial thermal nociception (cheek withdrawal latency to radiant heat)", "assay_type": "in vivo", "conditions": "for analgesic effect (elevation in latency to withdrawal): 15-300 min", "description": "The heat from a projector lamp was focused on the pre-shaved cheek of rats and the intensity was varied to obtain a withdrawal response with a latency of between 6.5 and 8.5 seconds. The intensity applied to achieve such latencies was recorded for each animal. Once stable/acceptable baseline values were obtained, the average latencies for each rat were calculated. After baseline cheek withdrawal latencies were determined for all rats, each rat received a single nasal administration of either normal saline, 15% magnesium chloride in water, or 1% magnesium lactate in water according to the method developed by Frey (Thorne, et al. Neuroscience., 127: 481-496 (2004)). Briefly, rats (under urethane anesthesia) were placed in a supine position with a rolled pad (2×2 gauze) inserted under the dorsal neck to extend the head back toward the supporting surface. The upper surface of the neck was kept horizontal throughout the dosing procedure to maintain the drug solution in the nasal cavity and minimize dripping down the nasopharynx. A 6 μL drop of the respective drug solution was delivered off the tip of a small pipette and presented to the nares on the left side of the rat while occluding the opposite nares. One drop was administered every 2 minutes, alternating between each nares (thus amounting to a four minute interval between doses to the same nares). Each nostril received 4 drops, totaling a combined volume of 48 μL (8 drops of 6 μL each). Drug solutions were coded in order to keep the experimenter blinded as to the substances delivered. Left cheek withdrawal latencies in response to radiant heat stimulation were then measured over the next 3 hours. Withdrawal latencies were measured prior to nasal administration and at 1, 2, and 3 hours post-treatment.\n(§1) One of 4 concentrations of dibasic magnesium citrate (1:1 Mg/citrate) was applied to rats and the effects of these applications on responses to noxious thermal stimulation of the face were assessed as described above. Each rat received a single nasal administration of 3, 6, 10, or 12% magnesium citrate in water (6 rats/group) according to the method described above. Left cheek withdrawal latencies in response to radiant heat stimulation were then measured over the following 300 minutes. Withdrawal latencies were measured prior to nasal administration and at 15, 30, 45, 60, 120, 180, 240, and 300 min post-treatment.\nas §1, with “3 doses” for “4 concentrations”, “oxytocin in buffered saline” for “dibasic magnesium citrate (1:1 Mg/citrate)”, “1, 4,” for “3, 6, 10,”, “8 μg oxytocin” for “12% magnesium citrate”, “aqueous solution” for “water”\nAqueous solutions containing a combination of magnesium citrate at one of 3 concentrations with oxytocin at one of 3 doses were applied nasally in rats and changes in withdrawal response latency were measured as above. Each rat received a single nasal administration of 1, 4, or 8 μg of oxytocin in aqueous solution containing 3, 6, or 12% magnesium citrate according to the method described above. Left cheek withdrawal latencies in response to radiant heat stimulation were then measured over the following 300 minutes. Withdrawal latencies were measured prior to nasal administration and at 15, 30, 45, 60, 120, 180, 240, and 300 min post-treatment.\nDifference scores were generated for each time point after dosing by comparing the respective withdrawal response latency to pre-dosing (baseline) values."}, "[2]": {"test_system": "patient with chronic tension-type headache", "assay": "Patient with chronic tension-type headache, neck and shoulder pain taking oxytocin sprays", "assay_type": "in vivo, human", "text": "A patient with chronic tension-type headache reported having intense pain in their head, neck and shoulders. The patient took 4 sprays of 7.5 IU/spray oxytocin for a dose of 30 units, at which point their headache pain was gone, but the neck and shoulder pain remained. […] Thus, a higher dose was necessary to affect neck and shoulder pain than was necessary to inhibit head pain in the same patient."}, "[3]": {"test_system": "rat paw inflammation model", "assay": "Rat paw inflammation model (complete Freund's adjuvant, forepaw force withdrawal threshold)", "assay_type": "in vivo", "conditions": "nasal", "description": "The analgesic effect of nasally administered oxytocin on cervical nerve-associated inflammatory pain was assessed in a rat paw inflammation model (Martin et al., Pain 1999, 82:199-205). Oxytocin was nasally administered at one of three doses (193, 385 or 768 micrograms in 48 microliters) and force withdrawal thresholds in grams were determined following mechanical stimulation of the inflamed area (forepaw), at regular intervals over the next three hours, and compared against those of vehicle (phosphate buffered saline) treated rats. Injection of complete Freund's adjuvant into the left forepaw of rats produced a robust inflammation of that paw as well as a substantial decrease in the force necessary to elicit a withdrawal response (mechanical allodynia)."}, "[4]": {"conditions": "1% in water, single nasal administration"}, "[5]": {"conditions": "4 sprays of 7.5 IU/spray, dose of 30 units"}}}
{"compound": "[Cl-].[Cl-].[Mg+2]", "note": "[magnesium chloride]", "values": [{"measurement": "analgesia at 2 and 3 hours after dosing", "setting": "[1]; 15% in water, single nasal administration", "value": "analgesia continuing"}, {"measurement": "analgesic effect compared to nasal saline treated rats", "setting": "[1]; 15% in water, single nasal administration, 1 hour", "value": "strong analgesic effect"}]}
{"compound": "CC(O)C(=O)[O-].CC(O)C(=O)[O-].[Mg+2]", "note": "(centres unmarked) [magnesium lactate]", "values": [{"measurement": "analgesic effect", "setting": "[1]; [4]", "value": "mild analgesic effect"}, {"measurement": "withdrawal latencies at the 2 and 3 hour time points", "setting": "[1]; [4]", "value": "still substantially elevated"}, {"measurement": "rise in withdrawal response latency", "setting": "[1]; 1% in water, single nasal administration, 48 μL", "value": "approximately 1.5 s"}]}
{"compound": "CC[C@H](C)[C@@H]1NC(=O)[C@H](Cc2ccc(O)cc2)NC(=O)[C@@H](N)CSSC[C@@H](C(=O)N2CCC[C@H]2C(=O)N[C@@H](CC(C)C)C(=O)NCC(N)=O)NC(=O)[C@H](CC(N)=O)NC(=O)[C@H](CCC(N)=O)NC1=O", "note": "[oxytocin, Cys-Tyr-Ile-Gln-Asn-Cys-Pro-Leu-Gly]", "values": [{"measurement": "headache pain", "setting": "[2]; [5]", "value": "gone"}, {"measurement": "neck and shoulder pain", "setting": "[2]; [5]", "value": "remained"}, {"measurement": "neck and shoulder pain", "setting": "[2]; additional 8-10 sprays, or a total of 60-75 IU", "value": "receded and ceased"}, {"measurement": "withdrawal latency", "setting": "[1]; 1 μg nasally applied", "value": "no increase"}, {"measurement": "analgesic effect (elevation in latency to withdrawal)", "setting": "[1]; 1, 4 or 8 μg in aqueous solution, single nasal administration", "value": "clear dose-dependent analgesic effect"}, {"measurement": "latency to withdrawal in response to noxious cheek heating", "setting": "[1]; 4 and 8 μg nasally applied", "value": "robust increase in latency to withdrawal"}, {"measurement": "effect on mechanical allodynia resulting from inflammation", "setting": "[3]; higher 2 doses, 385 or 768 micrograms in 48 microliters", "value": "statistically significant partial reversal of the mechanical allodynia"}, {"measurement": "effect on pain thresholds (force withdrawal threshold, inflamed forepaw)", "setting": "[3]; lowest dose, 193 micrograms in 48 microliters", "value": "ineffective"}]}
{"compound": "magnesium citrate", "values": [{"measurement": "analgesic effect (elevation in latency to withdrawal)", "setting": "[1]; 3, 6, 10 or 12% in water, single nasal administration", "value": "clear dose-dependent analgesic effect"}]}
